DC50 and Dmax data for twelve compounds are collected here from patent publication US12180193B2, “Accelerating fibrosarcoma protein degrading compounds and associated methods of use” (Arvinas Operations, Inc., priority 2020, dated 2024).

One assay has as its target T1, BRAF G466V (Homo sapiens, UniProt P15056, G466V).
T1 construct: expressed in transfected cells
Briefly: Cellular assay of target protein degradation, T-Rex 293 cells stably transfected with HA-BRAF G466V (HA immunofluorescence, high content imaging). The settings on record: T-Rex 293 HA-BRAF G466V; for DC50: half maximal degradation, read-out: BRaf G466V DC50; for Dmax: maximum degradation observed. Format: cell-based. The procedure, abridged: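 Dose range spans 30 nM to 3 pM (0.1% DMSO) over 24 hours at 37° C, in cells induced with 0.75 ng/mL doxycycline. Fixed cells are probed with anti-HA antibody overnight at 4° C, then imaged; half-maximal degradation and maximum degradation are derived.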

A further assay concerns the target T2, BRAF V600E (Homo sapiens, UniProt P15056, V600E).
T2 construct: expressed in transfected cells
The experiment in a line: Cellular assay of target protein degradation, T-Rex 293 cells stably transfected with HA-BRAF_V600E (HA immunofluorescence, high content imaging). Format: cell-based. The following applies: T-Rex 293 HA-BRAF V600E; for DC50: half maximal degradation, read-out: BRaf V600E DC50; for Dmax: maximum degradation observed. The procedure, abridged: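 Degradation of the HA-tagged construct is measured after 24 h treatment at 37 °C across 1 μM to 0.1 nM in 0.1% DMSO, in doxycycline-induced (1 ng/mL) cells. DC50 and Dmax come from HA fluorescence imaging.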

T2 sequence (P15056 whole entry V600E): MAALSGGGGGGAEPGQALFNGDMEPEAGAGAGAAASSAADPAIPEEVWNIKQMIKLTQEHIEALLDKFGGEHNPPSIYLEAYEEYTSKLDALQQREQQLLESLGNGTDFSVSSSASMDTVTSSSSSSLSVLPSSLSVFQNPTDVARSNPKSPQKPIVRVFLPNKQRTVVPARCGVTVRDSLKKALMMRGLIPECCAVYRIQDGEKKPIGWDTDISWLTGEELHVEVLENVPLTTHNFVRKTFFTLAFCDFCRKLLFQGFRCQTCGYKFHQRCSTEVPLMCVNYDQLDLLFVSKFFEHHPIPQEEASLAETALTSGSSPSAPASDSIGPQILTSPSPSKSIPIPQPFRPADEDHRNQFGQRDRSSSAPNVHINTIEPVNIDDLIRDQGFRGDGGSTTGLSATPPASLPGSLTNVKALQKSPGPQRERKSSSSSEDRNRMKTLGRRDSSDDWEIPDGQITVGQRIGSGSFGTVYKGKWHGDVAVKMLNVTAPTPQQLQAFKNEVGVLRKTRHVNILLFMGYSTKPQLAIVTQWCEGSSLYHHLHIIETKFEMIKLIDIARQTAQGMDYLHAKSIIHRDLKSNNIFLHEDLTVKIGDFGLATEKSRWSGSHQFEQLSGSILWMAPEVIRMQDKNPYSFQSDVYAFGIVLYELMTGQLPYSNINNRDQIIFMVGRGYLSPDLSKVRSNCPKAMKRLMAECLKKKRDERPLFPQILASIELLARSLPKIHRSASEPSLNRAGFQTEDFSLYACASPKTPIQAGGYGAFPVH
T1 sequence (P15056 whole entry G466V): as the sequence (P15056 whole entry V600E) above, with G466V, E600V counted along it

One may read the DC50 as the midpoint of the concentration-degradation curve. The Dmax is the greatest extent of degradation seen. Read a low Dmax as shallow degradation. On to `CNc1cc(-c2cnc3[nH]cc(C(=O)c4c(F)ccc(NS(=O)(=O)N5CC[C@@H](F)C5)c4F)c3c2)cc(NC)c1N1CCC(CN2CCC(c3ccc4c(c3)CN([C@H]3CCC(=O)NC3=O)C4=O)CC2)CC1` [Compound 284, (3R)-N-{3-[5-(4-{4-[(4-{2-[(3S)-2,6-dioxopiperidin-3-yl]-1-oxo-2,3-dihydro-1H-isoindol-5-yl}piperidin-1-yl)methyl]piperidin-1-yl}-3,5-bis(methylamino)phenyl)-1H-pyrrolo[2,3-b]pyridine-3-carbonyl]-2,4-difluorophenyl}-3-fluoropyrrolidine-1-sulfonamide], for which the DC50 lay within 1 to 10 nM at BRAF G466V and 5 to 50 nM at BRAF V600E. Moreover, the figures for the Dmax at BRAF G466V and at BRAF V600E were > 70% and 35 to 70%, respectively.

For `CNc1cc(-c2cnc3[nH]cc(C(=O)c4c(F)ccc(NS(=O)(=O)N5CC[C@@H](F)C5)c4F)c3c2)cc(NC)c1N1CCC(CN2CCC(c3ccc4c(c3)CN(C3CCC(=O)NC3=O)C4=O)CC2)CC1` (stereo partly drawn) [Compound 285, (3R)-N-[3-(5-{4-[4-({4-[2-(2,6-dioxopiperidin-3-yl)-1-oxo-2,3-dihydro-1H-isoindol-5-yl]piperidin-1-yl}methyl)piperidin-1-yl]-3,5-bis(methylamino)phenyl}-1H-pyrrolo[2,3-b]pyridine-3-carbonyl)-2,4-difluorophenyl]-3-fluoropyrrolidine-1-sulfonamide], at BRAF G466V, the DC50 lay in the range of 1 to 10 nM and the Dmax lay within 35 to 70%. At BRAF V600E, the half-maximal degradation concentration (DC50) is 5 to 50 nM and the Dmax is < 35%.

On to `O=C1CC[C@@H](N2Cc3cc(N4CC(CN5CCN(C6(c7ncc(-c8cnc9[nH]cc(C(=O)c%10c(F)ccc(NS(=O)(=O)N%11CC[C@@H](F)C%11)c%10F)c9c8)cn7)CC6)CC5)C4)ccc3C2=O)C(=O)N1` [Compound 286, (3R)-N-(3-{5-[2-(1-{4-[(1-{2-[(3R)-2,6-dioxopiperidin-3-yl]-1-oxo-2,3-dihydro-1H-isoindol-5-yl}azetidin-3-yl)methyl]piperazin-1-yl}cyclopropyl)pyrimidin-5-yl]-1H-pyrrolo[2,3-b]pyridine-3-carbonyl}-2,4-difluorophenyl)-3-fluoropyrrolidine-1-sulfonamide], for which, at BRAF G466V, the DC50 lay within 1 to 10 nM and the Dmax is 35 to 70%. Further, at BRAF V600E, the DC50 was 50 to 500 nM and the Dmax was in the range of 35 to 70%.

As for `CN(c1ncc(-c2cnc3[nH]cc(C(=O)c4c(F)ccc(NS(=O)(=O)N5CC[C@@H](F)C5)c4F)c3c2)cn1)C1CCN(CC2CCN(c3ccc4c(c3)CN([C@H]3CCC(=O)NC3=O)C4=O)CC2)CC1` [Compound 287, (3R)-N-(3-{5-[2-({1-[(1-{2-[(3S)-2,6-dioxopiperidin-3-yl]-1-oxo-2,3-dihydro-1H-isoindol-5-yl}piperidin-4-yl)methyl]piperidin-4-yl}(methyl)amino)pyrimidin-5-yl]-1H-pyrrolo[2,3-b]pyridine-3-carbonyl}-2,4-difluorophenyl)-3-fluoropyrrolidine-1-sulfonamide], at BRAF G466V, the DC50 is 1 to 10 nM and the Dmax lay within 35 to 70%. For the same compound, on BRAF V600E, the DC50 was in the range of 5 to 50 nM and the Dmax fell in the range of 35 to 70%.

Turning to `O=C1CC[C@H](N2Cc3cc(N4CCC(CN5CCN(C6(c7ccc(-c8cnc9[nH]cc(C(=O)c%10c(F)ccc(NS(=O)(=O)N%11CC[C@@H](F)C%11)c%10F)c9c8)cn7)CC6)CC5)CC4)ccc3C2=O)C(=O)N1` [Compound 288, (3R)-N-(3-{5-[6-(1-{4-[(1-{2-[(3S)-2,6-dioxopiperidin-3-yl]-1-oxo-2,3-dihydro-1H-isoindol-5-yl}piperidin-4-yl)methyl]piperazin-1-yl}cyclopropyl)pyridin-3-yl]-1H-pyrrolo[2,3-b]pyridine-3-carbonyl}-2,4-difluorophenyl)-3-fluoropyrrolidine-1-sulfonamide], on BRAF G466V, the DC50 is > 30 nM and the greatest degradation seen (Dmax) was > 70%. In addition, at BRAF V600E, the DC50 lay in the range of 50 to 500 nM and the Dmax fell in the range of 35 to 70%.

For the compound `C[C@@H](c1ncc(-c2cnc3[nH]cc(C(=O)c4c(F)ccc(NS(=O)(=O)N5CC[C@@H](F)C5)c4F)c3c2)cn1)N1CCN(CC2CCN(c3ccc4c(c3)CN([C@H]3CCC(=O)NC3=O)C4=O)CC2)CC1` [Compound 289, (3R)-N-[3-(5-{2-[(1S)-1-{4-[(1-{2-[(3S)-2,6-dioxopiperidin-3-yl]-1-oxo-2,3-dihydro-1H-isoindol-5-yl}piperidin-4-yl)methyl]piperazin-1-yl}ethyl]pyrimidin-5-yl}-1H-pyrrolo[2,3-b]pyridine-3-carbonyl)-2,4-difluorophenyl]-3-fluoropyrrolidine-1-sulfonamide], the DC50 on BRAF G466V is 10 to 30 nM; on BRAF V600E, 50 to 500 nM. The Dmax on BRAF G466V and at BRAF V600E was 35 to 70% in each case.

Consider `C[C@H](c1ncc(-c2cnc3[nH]cc(C(=O)c4c(F)ccc(NS(=O)(=O)N5CC[C@@H](F)C5)c4F)c3c2)cn1)N1CCN(CC2CCN(c3ccc4c(c3)CN([C@H]3CCC(=O)NC3=O)C4=O)CC2)CC1` [Compound 290, (3R)-N-[3-(5-{2-[(1R)-1-{4-[(1-{2-[(3S)-2,6-dioxopiperidin-3-yl]-1-oxo-2,3-dihydro-1H-isoindol-5-yl}piperidin-4-yl)methyl]piperazin-1-yl}ethyl]pyrimidin-5-yl}-1H-pyrrolo[2,3-b]pyridine-3-carbonyl)-2,4-difluorophenyl]-3-fluoropyrrolidine-1-sulfonamide], for which, on BRAF G466V, the 50% degradation concentration (DC50) lay in the range of 1 to 10 nM and the Dmax was in the range of 35 to 70%. Further, on BRAF V600E, the DC50 fell in the range of 50 to 500 nM and the Dmax fell in the range of 35 to 70%.

As for `O=C1CCC(N2Cc3cc(N4CCC(C5CN(c6ccc(-c7cnc8[nH]cc(C(=O)c9c(F)ccc(NS(=O)(=O)N%10CC[C@@H](F)C%10)c9F)c8c7)cc6)C5)CC4)ccc3C2=O)C(=O)N1` (stereo partly drawn) [Compound 293, (3R)-N-(3-{5-[4-(3-{1-[2-(2,6-dioxopiperidin-3-yl)-1-oxo-2,3-dihydro-1H-isoindol-5-yl]piperidin-4-yl}azetidin-1-yl)phenyl]-1H-pyrrolo[2,3-b]pyridine-3-carbonyl}-2,4-difluorophenyl)-3-fluoropyrrolidine-1-sulfonamide], the DC50 at BRAF G466V was in the range of 1 to 10 nM; on BRAF V600E, 50 to 500 nM. Further, the Dmax at BRAF G466V and at BRAF V600E was 35 to 70% throughout.

Consider `O=C1CCC(N2Cc3cc(CCCOCC4CCN(c5ccc(-c6cnc7[nH]cc(C(=O)c8c(F)ccc(NS(=O)(=O)N9CC[C@@H](F)C9)c8F)c7c6)cc5)CC4)ccc3C2=O)C(=O)N1` (stereo partly drawn) [Compound 294, (3R)-N-[3-(5-{4-[4-({3-[2-(2,6-dioxopiperidin-3-yl)-1-oxo-2,3-dihydro-1H-isoindol-5-yl]propoxy}methyl)piperidin-1-yl]phenyl}-1H-pyrrolo[2,3-b]pyridine-3-carbonyl)-2,4-difluorophenyl]-3-fluoropyrrolidine-1-sulfonamide], for which, at BRAF G466V, the DC50 fell in the range of 1 to 10 nM and the Dmax lay within 35 to 70%. Also, on BRAF V600E, the 50% degradation concentration (DC50) lay within 50 to 500 nM and the Dmax was in the range of 35 to 70%.

Take `COc1cc([C@@H](O)CCN2CCN(c3ccc(-c4cnc5[nH]cc(C(=O)c6c(F)ccc(NS(=O)(=O)N7CC[C@@H](F)C7)c6F)c5c4)cc3)CC2)cc2c1C(=O)N([C@@H]1CCC(=O)NC1=O)C2` [Compound 296, (3R)-N-{3-[5-(4-{4-[(3S)-3-{2-[(3R)-2,6-dioxopiperidin-3-yl]-7-methoxy-1-oxo-2,3-dihydro-1H-isoindol-5-yl}-3-hydroxypropyl]piperazin-1-yl}phenyl)-1H-pyrrolo[2,3-b]pyridine-3-carbonyl]-2,4-difluorophenyl}-3-fluoropyrrolidine-1-sulfonamide]: on BRAF G466V, the DC50 was in the range of 1 to 10 nM and the Dmax fell in the range of 35 to 70%. Besides, at BRAF V600E, the DC50 was 50 to 500 nM and the Dmax was 35 to 70%.

As to `O=C1CCC(N2Cc3cc(C4CCN(C[C@H]5CCN(c6ccc(-c7cnc8[nH]cc(C(=O)c9c(F)ccc(NS(=O)(=O)N%10CC[C@@H](F)C%10)c9F)c8c7)cc6)C[C@H]5F)CC4)ccc3C2=O)C(=O)N1` (stereo partly drawn) [Compound 297, (3R)-N-[3-(5-{4-[(3S,4R)-4-({4-[2-(2,6-dioxopiperidin-3-yl)-1-oxo-2,3-dihydro-1H-isoindol-5-yl]piperidin-1-yl}methyl)-3-fluoropiperidin-1-yl]phenyl}-1H-pyrrolo[2,3-b]pyridine-3-carbonyl)-2,4-difluorophenyl]-3-fluoropyrrolidine-1-sulfonamide], at BRAF G466V, the DC50 was < 1 nM and the Dmax was > 70%. Moreover, at BRAF V600E, the DC50 was 5 to 50 nM and the Dmax was in the range of 35 to 70%.

In the case of `O=C1CCC(N2Cc3cc(N4CCC(CN5CCN(C6(c7ncc(-c8cnc9[nH]cc(C(=O)c%10c(F)ccc(NS(=O)(=O)N%11CC[C@@H](F)C%11)c%10F)c9c8)cn7)CC6)CC5)CC4)ccc3C2=O)C(=O)N1` (stereo partly drawn) [Compound 298, (3R)-N-{3-[5-(2-{1-[4-({1-[2-(2,6-dioxopiperidin-3-yl)-1-oxo-2,3-dihydro-1H-isoindol-5-yl]piperidin-4-yl}methyl)piperazin-1-yl]cyclopropyl}pyrimidin-5-yl)-1H-pyrrolo[2,3-b]pyridine-3-carbonyl]-2,4-difluorophenyl}-3-fluoropyrrolidine-1-sulfonamide], at BRAF G466V, the DC50 is < 1 nM and the Dmax fell in the range of 35 to 70%. Moreover, on BRAF V600E, the DC50 fell in the range of 50 to 500 nM and the Dmax was < 35%.
